{
  "source": "patent US6262036A",
  "about": "“Method for inhibiting RNA translation using chimeric oligonucleoside compounds” (priority 2000, dated 2001)",
  "key": {"[1]": {"test_system": "complementary synthetic RNA targets", "test": "Binding stability of backbone modified (CT)7A oligomers to RNA (Example 34)"}, "[2]": {"test_system": "complementary synthetic RNA target", "test": "Hybridization of chirally enriched and non-chiral oligomers to RNA targets (Example 32)", "type": "binding", "conditions": "1:1 with RNA, midpoint of sigmoidal transition at 260 nm", "procedure": "Chirally enriched all-pyrimidine (C*T)7 A and all-purine (A*G)7 T MP-oligomers were prepared using either Rp - or Sp -dimeric units. Control oligomers were also prepared using the individual monomeric units. The asterisks indicate the positions of defined chirality.\nEach oligomer was annealed to a complementary synthetic RNA target and then monitored by absorbance at 260 nm as a function of temperature. Sigmoidal transitions were observed corresponding to thermal denaturation of the hybridization complexes. The Tm values were determined at the midpoint of each sigmoidal transition. […] Thus, we anticipated that the data for each chirally enriched series would be applicable to double-stranded and triple-stranded MP/RNA helices, respectively."}, "[3]": {"test_system": "complementary RNA targets", "test": "Tm of Rp-enriched versus racemic methylphosphonate oligomers with RNA (Example 33)", "type": "binding", "conditions": "2.4 μM total strand concentration, pH 7.2, 100 mM sodium chloride"}},
  "note": "[mp] = methylphosphonate linkage",
  "data": [
    {"substance": "2288-1: 5'-CT-CT-CT-CT-CT-CT-CT-A-3', racemic all-MP (CTCTCTCTCTCTCTA; all [mp], sugars by position and methylation of C not given here) [Oligomer 2288-1]", "values": [
      {"measurement": "TM", "setting": "[1]; 2.4 μM total strand concentration, pH 7.2, 100 mM sodium chloride", "result": 34.0, "unit": "°C"},
      {"measurement": "K (37° C.) (binding constant KA)", "setting": "[1]; 37° C., two-state model fit of thermal dissociation data", "result": "8.3 × 10^5"},
      {"measurement": "Tm (1:1, RNA)", "setting": "[2]", "result": 35.1, "unit": "°C"},
      {"measurement": "Tm", "setting": "[3]", "result": 34.4, "unit": "°C"}
    ]}
  ]
}
